Measurements reported in patent US5025033A, “Alkylene diamines” (Takeda Chemical Industries, Ltd., priority 1988, dated 1991).
Structures can show the parent of a compound that is named as a salt.

biological target: T1, Acetylcholinesterase (Rattus norvegicus, UniProt P37136); assay: Acetylcholinesterase inhibiting activity using (acetyl-[3H])-acetylcholine, S1 fraction of rat cerebral cortex homogenate; format: biochemical, male Wistar rat; conditions: rat cerebral cortex homogenate S1 fraction; 30 minutes of incubation; read-out: Acetylcholinesterase inhibiting activity IC50
T1 construct: the S1 fraction of a male Wistar rat cerebral cortex homogenate was used as a cholinesterase source; from tissue; host or cells: male Wistar rat cerebral cortex homogenate, S1 fraction
Method: The compounds according to the invention were examined for cholinesterase inhibiting activity using (acetyl-[^3 H])-acetylcholine. Thus, the S1 fraction of a male Wistar rat cerebral cortex homogenate was used as a cholinesterase source, and (acetyl-[^3 H])-acetylcholine (as substrate) and each test compound according to the invention were added and, after 30 minutes of incubation, the reaction was terminated. A toluene type scintillator was added, and the mixture was shaken, whereby the reaction product [^3 H]-acetic acid was transferred to the toluene layer. The cholinesterase activity was determined by counting said [^3 H]-acetic acid with a liquid scintillation counter.
The cholinesterase inhibiting activity of each test compound was expressed in terms of 50% inhibitory concentration (IC50).

T1 sequence (P37136 32-614): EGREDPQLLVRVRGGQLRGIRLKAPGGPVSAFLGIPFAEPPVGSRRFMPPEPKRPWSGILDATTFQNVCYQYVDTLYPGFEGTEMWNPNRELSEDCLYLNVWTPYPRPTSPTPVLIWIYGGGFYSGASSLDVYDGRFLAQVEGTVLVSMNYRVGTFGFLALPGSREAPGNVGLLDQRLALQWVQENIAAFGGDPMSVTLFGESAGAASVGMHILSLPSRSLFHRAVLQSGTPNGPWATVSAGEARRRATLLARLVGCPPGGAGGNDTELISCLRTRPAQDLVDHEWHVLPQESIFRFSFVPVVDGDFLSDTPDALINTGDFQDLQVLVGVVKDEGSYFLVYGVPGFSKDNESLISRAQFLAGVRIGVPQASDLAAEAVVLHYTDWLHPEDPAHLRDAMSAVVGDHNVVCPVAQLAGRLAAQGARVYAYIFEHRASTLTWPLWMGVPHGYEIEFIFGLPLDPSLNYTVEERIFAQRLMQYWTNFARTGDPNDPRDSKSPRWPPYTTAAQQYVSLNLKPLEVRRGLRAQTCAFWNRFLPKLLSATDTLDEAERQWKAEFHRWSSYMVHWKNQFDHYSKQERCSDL

First: CN(CCCCN1C(=O)c2ccc([N+](=O)[O-])cc2C1=O)Cc1ccccc1 [Compound 1, 2-[4-(N-Benzyl-N-methyl)aminobutyl]-5-nitro-1H--isoindole-1,3(2H)-dione hydrochloride]
Second: CN(CCCCCN1C(=O)c2ccc([N+](=O)[O-])cc2C1=O)Cc1ccccc1 [Compound 2-2]
The IC50 of the first is 6.8-fold higher: 9500 nM for the first, 1400 nM for the second. The second is the more potent here.

Going from CCN(CCCCN1C(=O)c2ccc([N+](=O)[O-])cc2C1=O)Cc1ccccc1 [Compound 2-3] to CCN(CCCN1C(=O)c2ccc([N+](=O)[O-])cc2C1=O)Cc1ccccc1 [Compound 2-13], the IC50 rises from 250 nM to 10000 nM (40-fold).

O=C1c2ccc([N+](=O)[O-])cc2C(=O)N1CCCCN(CCO)Cc1ccccc1 [Compound 2-4] and CCCN(CCCCN1C(=O)c2ccc([N+](=O)[O-])cc2C1=O)Cc1ccccc1 [Compound 2-16] are within 1.5-fold of each other in IC50: 1500 nM for the first, 1900 nM for the second.

Going from O=C1c2ccc([N+](=O)[O-])cc2C(=O)N1CCCCN1CCc2ccccc2C1 [Compound 2-6] to CCN(CCCCCN1C(=O)c2ccc([N+](=O)[O-])cc2C1=O)Cc1ccccc1Cl [Compound 2-21], the IC50 falls from 18000 nM to 130 nM (140-fold). The second is the more potent here.

Compared with CC(C)N(CCCCN1C(=O)c2ccc([N+](=O)[O-])cc2C1=O)Cc1ccccc1 [Compound 2-7], CC(C)N(CCCCCN1C(=O)c2ccc([N+](=O)[O-])cc2C1=O)Cc1ccccc1 [Compound 2-12] is 1.7-fold higher in IC50: 490 nM for the first, 830 nM for the second. The first is the more potent here.

Compared with CN(CCCCCCN1C(=O)c2ccc([N+](=O)[O-])cc2C1=O)Cc1ccccc1 [Compound 2-9], CN(CCCCCCCN1C(=O)c2ccc([N+](=O)[O-])cc2C1=O)Cc1ccccc1 [Compound 2-10] is 3.8-fold higher in IC50: 480 nM for the first, 1800 nM for the second.

Going from CCCCN(CCCCN1C(=O)c2ccc([N+](=O)[O-])cc2C1=O)Cc1ccccc1 [Compound 2-11] to CCN(CCCCCCN1C(=O)c2ccc([N+](=O)[O-])cc2C1=O)Cc1ccccc1 [Compound 2-14], the IC50 falls from 1900 nM to 660 nM (2.9-fold).

Going from CCN(CCCCCCCN1C(=O)c2ccc([N+](=O)[O-])cc2C1=O)Cc1ccccc1 [Compound 2-15] to CCN(CCCCCN1C(=O)c2ccc(N)cc2C1=O)Cc1ccccc1 [Compound 10, 5-Amino-2-[5-(N-benzyl-N-ethyl)aminopentyl]-1H -isoindole-1,3(2H)-dione dihydrochloride], the IC50 falls from 4600 nM to 1200 nM (3.8-fold). The second is the more potent here.

Going from CCN(CCCCCN1C(=O)c2ccc([N+](=O)[O-])cc2C1=O)Cc1ccc(C)cc1 [Compound 2-17] to CCN(CCCCCN1C(=O)c2ccc([N+](=O)[O-])cc2C1=O)Cc1ccc(Cl)cc1 [Compound 2-19], the IC50 falls from 370 nM to 240 nM (1.5-fold). The second is the more potent here.

Going from CCN(CCCCCN1C(=O)c2ccc([N+](=O)[O-])cc2C1=O)Cc1ccc(OC)cc1 [Compound 2-18] to CCN(CCCCCN1C(=O)c2ccc([N+](=O)[O-])cc2C1=O)Cc1cccc(OC)c1 [Compound 2-26], the IC50 falls from 270 nM to 45 nM (6-fold).

CCN(CCCCCN1C(=O)c2ccc([N+](=O)[O-])cc2C1=O)Cc1cccc(Cl)c1 [Compound 2-20] and CCN(CCCCCN1C(=O)c2ccc([N+](=O)[O-])cc2C1=O)Cc1ccccc1F [Compound 2-22] are within 1.5-fold of each other in IC50: 240 nM for the first, 270 nM for the second.

Compared with CCN(CCCCCN1C(=O)c2ccc([N+](=O)[O-])cc2C1=O)Cc1ccccc1C [Compound 2-23], CCN(CCCCCN1C(=O)c2ccc([N+](=O)[O-])cc2C1=O)Cc1ccccc1OC [Compound 2-25] is 3.9-fold lower in IC50: 110 nM for the first, 28 nM for the second.

Compared with CCN(CCCCCN1C(=O)c2ccc([N+](=O)[O-])cc2C1=O)Cc1ccccc1[N+](=O)[O-] [Compound 2-24], CCN(CCCCCN1C(=O)c2ccc([N+](=O)[O-])cc2C1=O)Cc1cccc2ccccc12 [Compound 2-28] is 4.5-fold lower in IC50: 490 nM for the first, 110 nM for the second. The second is the more potent here.

Compared with CCN(CCCCCN1C(=O)c2ccc([N+](=O)[O-])cc2C1=O)Cc1cccc(OC)c1OC [Compound 2-27], CCN(CCCCCN1C(=O)c2ccc(OC)cc2C1=O)Cc1ccccc1 [Compound 12-6] is 2.6-fold higher in IC50: 270 nM for the first, 710 nM for the second.

Going from CN(CCCCN1C(=O)c2ccc(N)cc2C1=O)Cc1ccccc1 [Compound 3, 5-Amino-2-[4-(N-benzyl-N-methyl)aminobutyl]-1H-isoindole-1,3(2H)-dione hydrochloride] to CC(=O)Nc1ccc2c(c1)C(=O)N(CCCCN(C)Cc1ccccc1)C2=O [Compound 5-1], the IC50 falls from 34000 nM to 11000 nM (3.1-fold). The second is the more potent here.

Compared with CN(CCCCN1C(=O)c2ccc(NC(=O)c3ccccc3)cc2C1=O)Cc1ccccc1 [Compound 4, 2-[4-(N-Benzyl-N-methyl)aminobutyl]-5-benzoylamino-1H-isoindole-1,3(2H)-dione], CCN(CCCCCN1C(=O)c2ccc(NC(=O)c3ccccc3)cc2C1=O)Cc1ccccc1 [Compound 11-2] is 15-fold lower in IC50: 11000 nM for the first, 730 nM for the second. The second is the more potent here.

First: Cc1ccc(S(=O)(=O)Nc2ccc3c(c2)C(=O)N(CCCCN(C)Cc2ccccc2)C3=O)cc1 [Compound 5-2]
Second: CCN(CCCCCN1C(=O)c2ccc(NS(=O)(=O)c3ccc(C)cc3)cc2C1=O)Cc1ccccc1 [Compound 11-4]
The IC50 of the first is 17-fold higher: 37000 nM for the first, 2200 nM for the second. The second is the more potent here.

Compared with CN(CCCCN1C(=O)c2ccc(NS(=O)(=O)Cc3ccccc3)cc2C1=O)Cc1ccccc1 [Compound 5-3], CCN(CCCCCN1C(=O)c2ccc(NS(=O)(=O)Cc3ccccc3)cc2C1=O)Cc1ccccc1 [Compound 11-5] is 38-fold lower in IC50: 9200 nM for the first, 240 nM for the second.

First: O=C1c2ccc([N+](=O)[O-])cc2C(=O)N1CCCCNCc1cccc2ccccc12 [Compound 8-2]
Second: CCN(CCCCCN1C(=O)c2ccc(NC(=O)Cc3ccccc3)cc2C1=O)Cc1ccccc1 [Compound 11-3]
The IC50 of the first is 1.9-fold higher: 2900 nM for the first, 1500 nM for the second.

CN(CCCCNC(=O)/C=C/c1ccc([N+](=O)[O-])cc1)Cc1ccccc1 [Compound 9, (E)-N-[4-(N-Methyl-N-benzyl)aminobutyl]-3-(4-nitrophenyl)-2-propenamide] and CN(CCCCNC(=O)/C=C/c1cccc([N+](=O)[O-])c1)Cc1ccccc1 [Compound 14-1] are within 1.5-fold of each other in IC50: 14000 nM for the first, 13000 nM for the second.

CCN(CCCCCN1C(=O)c2ccc(NS(C)(=O)=O)cc2C1=O)Cc1ccccc1 [Compound 11-6] and CCN(CCCCCN1C(=O)c2ccc(OS(C)(=O)=O)cc2C1=O)Cc1ccccc1 [Compound 12-12] are within 1.5-fold of each other in IC50: 470 nM for the first, 380 nM for the second.

First: CCN(CCCCCN1C(=O)c2cccc([N+](=O)[O-])c2C1=O)Cc1ccccc1 [Compound 12-3]
Second: CCN(CCCCCN1C(=O)c2ccc(O)cc2C1=O)Cc1ccccc1 [Compound 12-4]
The IC50 of the first is 3.7-fold lower: 680 nM for the first, 2500 nM for the second. The first is the more potent here.

Going from CCN(CCCCCN1C(=O)c2ccc(OC(C)=O)cc2C1=O)Cc1ccccc1 [Compound 12-5] to CCN(CCCCCN1C(=O)c2ccc(C(=O)OC)cc2C1=O)Cc1ccccc1 [Compound 13, Methyl 2-[5-(N-benzyl-N-ethyl)aminopentyl]-1,3(2H)-dioxo-1H-isoindole-5-carboxylate hydrochloride], the IC50 falls from 2100 nM to 580 nM (3.6-fold).

CCN(CCCCCN1C(=O)c2ccc(Cl)cc2C1=O)Cc1ccccc1 [Compound 12-7] and CCN(CCCCCN1C(=O)c2ccc(C)cc2C1=O)Cc1ccccc1 [Compound 12-11] are within 1.5-fold of each other in IC50: 1300 nM for the first, 1800 nM for the second.

First: CCN(CCCCCN1C(=O)c2ccc(C(=O)O)cc2C1=O)Cc1ccccc1 [Compound 12-8, 2-[5-(N-benzyl-N-ethyl)aminopentyl]-1,3-dioxo-1H-isoindole-5-carboxylic acid hydrochloride]
Second: CCN(CCCCCN1C(=O)c2ccc(C(=O)NC)cc2C1=O)Cc1ccccc1 [Compound 12-13]
The IC50 of the first is 23-fold higher: 8800 nM for the first, 380 nM for the second.

CCN(CCCCCN1C(=O)c2ccc(C(=O)N(CC)CC)cc2C1=O)Cc1ccccc1 [Compound 12-9] and CCN(CCCCCN1C(=O)c2ccc(C(=O)c3ccccc3)cc2C1=O)Cc1ccccc1 [Compound 12-10] are within 1.5-fold of each other in IC50: 980 nM for the first, 1100 nM for the second.

First: CN(CCCCNC(=O)/C=C/c1ccccc1[N+](=O)[O-])Cc1ccccc1 [Compound 14-2]
Second: CCN(CCCCCNC(=O)/C=C/c1ccccc1[N+](=O)[O-])Cc1ccccc1 [Compound 14-12]
The IC50 of the first is 4.6-fold higher: 18000 nM for the first, 3900 nM for the second.

CCN(CCCNC(=O)/C=C/c1ccc([N+](=O)[O-])cc1)Cc1ccccc1 [Compound 14-9] and CCN(CCCCCCCNC(=O)/C=C/c1ccc([N+](=O)[O-])cc1)Cc1ccccc1 [Compound 14-10] are within 1.5-fold of each other in IC50: 11000 nM for the first, 15000 nM for the second.

CCN(CCCCCNC(=O)/C=C/c1ccc(OC)c(OC)c1)Cc1ccccc1 [Compound 14-11] and CCN(CCCCCNC(=O)/C=C/c1cc(OC)c(OC)c(OC)c1)Cc1ccccc1 [Compound 14-23] are within 1.5-fold of each other in IC50: 5400 nM for the first, 4100 nM for the second.

Going from CCN(CCCCCNC(=O)/C=C/c1cccc([N+](=O)[O-])c1)Cc1ccccc1 [Compound 14-13] to CCN(CCCCCNC(=O)/C=C/c1ccc([N+](=O)[O-])c(O)c1)Cc1ccccc1 [Compound 14-24], the IC50 falls from 3000 nM to 170 nM (18-fold).

CCN(CCCCCNC(=O)/C=C/c1ccc(Cl)cc1)Cc1ccccc1 [Compound 14-14] and CCN(CCCCCNC(=O)/C=C/c1ccc(C)cc1)Cc1ccccc1 [Compound 14-15] are the same in IC50: 16000 nM for the first, 16000 nM for the second.

Compared with CCN(CCCCCNC(=O)/C=C/c1ccc(C#N)cc1)Cc1ccccc1 [Compound 14-16], CCN(CCCCCNC(=O)/C=C/c1ccc(O)cc1)Cc1ccccc1 [Compound 14-17] is 2.6-fold higher in IC50: 5000 nM for the first, 13000 nM for the second. The first is the more potent here.

First: CCN(CCCCCNC(=O)/C=C/c1ccc(OC)cc1)Cc1ccccc1 [Compound 14-18]
Second: CCN(CCCCCNC(=O)/C=C/c1cccc(OC)c1)Cc1ccccc1 [Compound 14-19]
The IC50 of the first is 1.7-fold higher: 16000 nM for the first, 9300 nM for the second.

Compared with CCN(CCCCCNC(=O)/C=C/c1ccc(SC)cc1)Cc1ccccc1 [Compound 14-20], CCN(CCCCCNC(=O)/C=C/c1ccc([S+](C)[O-])cc1)Cc1ccccc1 (stereo not shown) [Compound 14-21] is 2.8-fold lower in IC50: 21000 nM for the first, 7500 nM for the second. The second is the more potent here.

Compared with CCN(CCCCCNC(=O)/C=C/c1ccc(S(C)(=O)=O)cc1)Cc1ccccc1 [Compound 14-22], CCN(CCCCCNC(=O)/C=C/c1ccc(Cl)c([N+](=O)[O-])c1)Cc1ccccc1 [Compound 14-25] is 1.7-fold lower in IC50: 3200 nM for the first, 1900 nM for the second.
